These results are taken from article PMC10066365, “Nemacol is a small molecule inhibitor of C. elegans vesicular acetylcholine transporter with anthelmintic potential” (Nature Communications, 2023).

Where “and” joins values, the source holds several entries; their conditions need not be identical. Equal values may be shown once. Read-outs that look alike come from different tables or passages of the source. Some results are limits rather than exact numbers.

The test system of one test is Pristionchus pacificus. Description: Pristionchus pacificus motor disruption dose-response on solid media, 1 h. Conditions: for mean % any phene (coiled, jerky-Unc or paralyzed): Pristionchus pacificus young adults, mean of three biological replicates; for EC50: Pristionchus pacificus, 1 h, read-out: P. pacificus motor disruption EC50.
For test [1], the system named is Dirofilaria immitis L3/L4. The experiment in a line: Dirofilaria immitis L3/L4 motility assay (DiroImager, 72 h). Conditions: Dirofilaria immitis L4.
The next test relates to C. elegans. The experiment in a line: C. elegans motor phenotype scoring on solid media (Punc/jerky-unc, coiled, paralyzed), wild-type young adults. The format is in vivo, Caenorhabditis elegans. The settings on record: for atypical locomotion (number of animals) / coiled (number of animals) / no phene (number of animals) / paralyzed (number of animals): young adults, 20 animals per trial; for EC50: Caenorhabditis elegans, read-out: C. elegans - motor disruption EC50.

Test [2] relates to Dirofilaria immitis microfilariae. The experiment in a line: Dirofilaria immitis microfilariae immobility assay (DiroImager, 72 h). Conditions: Dirofilaria immitis microfilariae. The protocol:
We conducted experiments with the Missouri isolate of Dirofilaria immitis in two labs. In the first set of experiments, shown as part of Fig. 3c, D. immitis microfilariae and larval stage 3 (L3) worms were assayed in the laboratories of Bayer Animal Health GmbH (Monheim, Germany). For microfilariae immobility assays, approximately 250 freshly purified microfilariae were cultured in single wells of a 96-well microtiter plate containing supplemented RPMI 1640 medium[68],[69]. […] Microfilariae exposed to medium substituted with 1% DMSO were used as negative controls. Motility of microfilariae was evaluated after 72 h of drug exposure using an image-based approach—DiroImager, developed by Bayer Technology Services. As described in detail in refs. [68],[69], the DiroImager is an automated high-throughput platform that allows for high-resolution optical imaging of an entire 96-well microtiter plate.

Setting [3] is: conc 3.75, observed at one hour.
Setting [4] is: 3.75uM, one hour, mean of three biological replicates.
The mark [5] stands for this setting: 3.75uM, one hour, single replicate counts.
[6] abbreviates: 15uM, one hour, mean of three biological replicates.
The mark [7] stands for this setting: 15uM, one hour, single replicate counts.
[8] abbreviates: 60uM, one hour, mean of three biological replicates.
[9] abbreviates: 60uM, one hour, single replicate counts.
Setting [10] is: 3.75uM, one hour, mean of three biological replicates, third c14 line of each analog.
Where [11] appears, read: 15uM, one hour, mean of three biological replicates, second c14 line of each analog.
[12] abbreviates: 60uM, one hour, mean of three biological replicates, first c14 line of each analog.
The mark [13] stands for this setting: any motor phenotype after 1 h on solid media, ± 95% CI.
[14] abbreviates: 3.75uM, one hour, single technical replicate.
[15] abbreviates: 15uM, one hour, single technical replicate.
Where [16] appears, read: 60uM, one hour, single technical replicate.

Procedure for Pristionchus pacificus: Locomotor phenotype analyses were done in 24-well plates with 1 mL of MYOB substrate (27.5 g Trizma HCl, 12 g Trizma Base, 230 g bacto tryptone, 10 g NaCl, 0.4 g cholesterol (95%)) seeded with 25 µL of OP50 Escherichia coli on each well. Each compound was added to the MYOB substrate before pouring to achieve the desired final concentrations of 30 µM or 60 µM after diffusion through the media. Synchronized young adult worms are transferred into each well using a platinum wire pick. A Leica MZ75 stereomicroscope was used to visualize the movement of worms on the solid substrate. The specific dominant locomotor phenotype (i.e. ‘Punc’, ‘paralyzed’, ‘coiler’ or ‘wild-type locomotion’) was scored after the touch on the head with a platinum wire over a ~3–5 s of observation. […] Coiled animals were not scored as paralyzed despite sometimes not responding to light touch.

What is called EC50 is the concentration at which the effect is half-maximal. For the compound `O=[N+]([O-])c1ccc(N2CCN(Cc3ccccc3)CC2)cc1` [Nemacol-6], the “mean % any phene (coiled, jerky-Unc or paralyzed)” value in the test with Pristionchus pacificus (setting [3]) is given as 0%; in the test with Pristionchus pacificus (conc 15, observed at one hour) it was 1.667%; in the test with Pristionchus pacificus (conc 60, observed at one hour) it was 23.3333%. Besides, the EC50 in the test on Pristionchus pacificus and with C. elegans (1 h) was more than 60 µM in each case. Moreover, the results for the “% effect (motility), DIROIM L4” value in test [1] (2 µM), in test [1] (10 µM) and in test [1] (50 µM) were 5%, 6% and 20%, respectively. Further, the results for the “any phene, mean % fraction of young adults exhibiting any phenotype (coiled, jerky-Unc or paralyzed)” value with C. elegans (setting [4]), with C. elegans (setting [6]) and in the test with C. elegans (setting [8]) were 0%, 7.5% and 44.1667%, respectively. For the same compound, the “atypical locomotion (number of animals)” value in the test on C. elegans (setting [5]) is 0; with C. elegans (setting [7]), 1 and 0 and 2 and 5; with C. elegans (setting [9]) it was 5 and 3 and 4 and 19 and 13. Moreover, the “coiled (number of animals)” value in the test on C. elegans (setting [5]) is 0; in the test with C. elegans (setting [7]), 0; in the test on C. elegans (setting [9]), 1 and 0 and 3. The “no phene (number of animals)” value in the test with C. elegans (setting [5]) is 20; in the test with C. elegans (setting [7]), 19 and 20 and 18 and 15; with C. elegans (setting [9]), 14 and 17 and 12 and 16 and 1 and 7. Besides, the “paralyzed (number of animals)” value with C. elegans (setting [5]), in the test on C. elegans (setting [7]) and in the test with C. elegans (setting [9]) was 0 in each case. Further, the “% effect (motility), DIROIM MF” value in test [2] (0.016 µM), in test [2] (0.08 µM), in test [2] (0.4 µM), in test [2] (2 µM) and in test [2] (10 µM) was 0% each time.
As for `CN1CCN(c2ccc([N+](=O)[O-])cc2)CC1` [Nemacol-7], the “mean % any phene (coiled, jerky-Unc or paralyzed)” value with Pristionchus pacificus (setting [3]) came to 1.667%; in the test on Pristionchus pacificus (conc 15, observed at one hour), 5%; with Pristionchus pacificus (conc 60, observed at one hour) it was 41.6667%. The EC50 with Pristionchus pacificus and in the test with C. elegans (1 h) was more than 60 µM in each case. Further, the “% effect (motility), DIROIM L4” value was found to be 5% in test [1] (2 µM), 5% in test [1] (10 µM) and 10% in test [1] (50 µM). For the same compound, the “any phene, mean % fraction of young adults exhibiting any phenotype (coiled, jerky-Unc or paralyzed)” value worked out at 0% in the test with C. elegans (setting [4]), 3.333% with C. elegans (setting [6]) and 14.1667% with C. elegans (setting [8]). The “atypical locomotion (number of animals)” value is 0 in the test on C. elegans (setting [5]); 0 and 1 and 2 in the test on C. elegans (setting [7]); 1 and 2 and 0 and 4 and 8 in the test with C. elegans (setting [9]). Besides, the “coiled (number of animals)” value in the test on C. elegans (setting [5]), with C. elegans (setting [7]) and in the test with C. elegans (setting [9]) was 0 in each case. Besides, the “no phene (number of animals)” value is 20 in the test on C. elegans (setting [5]); 20 and 19 and 18 in the test on C. elegans (setting [7]); 19 and 18 and 20 and 16 and 12 in the test on C. elegans (setting [9]). Moreover, the “paralyzed (number of animals)” value with C. elegans (setting [5]), in the test with C. elegans (setting [7]) and with C. elegans (setting [9]) was 0 throughout. Moreover, the “% effect (motility), DIROIM MF” value in test [2] (0.016 µM), in test [2] (0.08 µM), in test [2] (0.4 µM), in test [2] (2 µM) and in test [2] (10 µM) was 0% in each case.
Take `c1cc(N2CCN(CC3CCCCC3)CC2)ccn1` [Nemacol-22, 1-(cyclohexylmethyl)−4-(pyridin-4-yl)piperazine]: the “% effect (motility), DIROIM L4” value is 0% in test [1] (2 µM), 0% in test [1] (10 µM) and 10% in test [1] (50 µM). In addition, the figures for the “any phene (mean % fraction of young adults exhibiting any phenotype: coiled, jerky-Unc or paralyzed)” value in the test on C. elegans (setting [10]), in the test on C. elegans (setting [11]) and in the test with C. elegans (setting [12]) were 0%, 10.8333% and 24.1667%, respectively. Besides, in the test on C. elegans (setting [13]), the EC50 was more than 60 µM. Also, the “% effect (motility), DIROIM MF” value in test [2] (0.016 µM), in test [2] (0.08 µM), in test [2] (0.4 µM), in test [2] (2 µM) and in test [2] (10 µM) was 0% each time.
For `N#Cc1ccc(N2CCN(CC3CCCCC3)CC2)cc1` [Nemacol-24, 4-(4-(cyclohexylmethyl)piperazin-1-yl)benzonitrile], the “% effect (motility), DIROIM L4” value stood at 25% in test [1] (10 µM) and 45% in test [1] (50 µM). Further, the “any phene (mean % fraction of young adults exhibiting any phenotype: coiled, jerky-Unc or paralyzed)” value came out at 8.333% in the test with C. elegans (setting [10]), 45.8333% in the test with C. elegans (setting [11]) and 91.6667% with C. elegans (setting [12]). Further, in the test with C. elegans (setting [13]), the EC50 was 16.3 ± 10.5 µM. Further, the “% effect (motility), DIROIM MF” value in test [2] (0.016 µM), in test [2] (0.08 µM), in test [2] (0.4 µM), in test [2] (2 µM) and in test [2] (10 µM) was 0% in each case.
With `O=[N+]([O-])c1ccc(N2CCN(CC3CC3)CC2)cc1` [Nemacol-28, 1-(cyclopropylmethyl)−4-(4-nitrophenyl)piperazine], the “% effect (motility), DIROIM L4” value is listed as 5% in test [1] (2 µM), 5% in test [1] (10 µM) and 15% in test [1] (50 µM). Also, the “any phene (mean % fraction of young adults exhibiting any phenotype: coiled, jerky-Unc or paralyzed)” value in the test with C. elegans (setting [10]) is given as 0%; with C. elegans (setting [11]) it was 4.167%; in the test with C. elegans (setting [12]), 32.5%. In the test on C. elegans (setting [13]), the EC50 is more than 60 µM. Besides, the “% effect (motility), DIROIM MF” value in test [2] (0.016 µM), in test [2] (0.08 µM), in test [2] (0.4 µM), in test [2] (2 µM) and in test [2] (10 µM) was 0% each time.
Regarding `Clc1ccc(N2CCN(C3CCCCCC3)CC2)cc1` [Nemacol-57], the “% effect (motility), DIROIM L4” value in test [1] (10 µM) came out at 10%; in test [1] (50 µM) it was 15%. Besides, the “atypical locomotion (number of animals)” value is 12 and 13 and 15 in the test on C. elegans (setting [14]); 0 and 2 and 4 and 6 with C. elegans (setting [15]); 0 and 2 and 1 with C. elegans (setting [16]). Moreover, the “coiled (number of animals)” value in the test with C. elegans (setting [14]) is 3 and 1 and 2 and 7; in the test with C. elegans (setting [15]), 17 and 15 and 14 and 10 and 11; in the test on C. elegans (setting [16]), 14 and 13 and 12 and 18 and 11. The “no phene (number of animals)” value with C. elegans (setting [14]) was 0 and 2 and 3; in the test on C. elegans (setting [15]), 0; in the test on C. elegans (setting [16]) it was 0. Further, the “paralyzed (number of animals)” value in the test with C. elegans (setting [14]) was 5 and 4 and 1 and 0; in the test with C. elegans (setting [15]), 3 and 4 and 0 and 6; in the test on C. elegans (setting [16]), 6 and 5 and 7 and 2 and 8. The “any phene: mean % fraction of young adults exhibiting any phenotype (coiled, jerky-Unc or paralyzed)” value in the test with C. elegans (setting [4]) is 92.5%. In addition, the EC50 in the test with C. elegans (setting [13]) was found to be 2.3 µM. The “% effect (motility), DIROIM MF” value in test [2] (0.016 µM), in test [2] (0.08 µM), in test [2] (0.4 µM), in test [2] (2 µM) and in test [2] (10 µM) was 0% throughout.
